In ChEMBL document CHEMBL3608208, “Synthesis, antibacterial and QSAR evaluation of 5-oxo and 5-thio derivatives of 1,4-disubstituted tetrazoles” (2015):
≈ marks a conversion by molar mass, not a printed value.

Experiments:
Type in all cases: functional
[1] = system: Klebsiella pneumoniae; assay: Antimicrobial activity against Klebsiella pneumoniae after 24 hrs by well-diffusion assay
[2] = system: Streptococcus sp.; assay: Antimicrobial activity against Streptococcus spp. after 24 hrs by well-diffusion assay
[3] = system: Bacillus subtilis; assay: Antimicrobial activity against Bacillus subtilis after 24 hrs by well-diffusion assay
[4] = system: Pseudomonas aeruginosa; assay: Antimicrobial activity against Pseudomonas aeruginosa after 24 hrs by well-diffusion assay
[5] = system: Escherichia coli; assay: Antimicrobial activity against Escherichia coli after 24 hrs by microbroth dilution assay
[6] = system: Staphylococcus aureus; assay: Antimicrobial activity against Staphylococcus aureus after 24 hrs by well-diffusion assay
[7] = system: Escherichia coli; assay: Antimicrobial activity against Escherichia coli after 24 hrs by well-diffusion assay
[8] = system: Staphylococcus aureus; assay: Antimicrobial activity against Staphylococcus aureus after 24 hrs by microbroth dilution assay
[9] = system: Proteus mirabilis; assay: Antimicrobial activity against Proteus mirabilis after 24 hrs by well-diffusion assay

| MIC [5] | MIC [8] | Compound | inhibition zone (IZ) [1] | inhibition zone (IZ) [2] | inhibition zone (IZ) [3] | inhibition zone (IZ) [4] | inhibition zone (IZ) [6] | inhibition zone (IZ) [7] | inhibition zone (IZ) [9] |
| --- | --- | --- | --- | --- | --- | --- | --- | --- | --- |
| 13.9 µg/mL (≈ 59.3 µM) | 2.66 µg/mL (≈ 11.4 µM) | CC(=O)OCn1nnn(-c2ccccc2)c1=O | 0 mm | 10 mm | 14 mm | 0 mm | 9 mm | 0 mm | 11 mm |
| 1.77 µg/mL (≈ 9.91 µM) | 1.76 µg/mL (≈ 9.9 µM) | Sc1nnnn1-c1ccccc1 | 8 mm | 12 mm | 16 mm | 11 mm | 18 mm | 14 mm | 19 mm |
| 8 µg/mL (≈ 38.8 µM) | 5.29 µg/mL (≈ 25.7 µM) | O=c1n(CCO)nnn1-c1ccccc1 | 13 mm | 0 mm | 12 mm | 0 mm | 0 mm | 11 mm | 12 mm |
| 1.54 µg/mL (≈ 9.52 µM) | 1.54 µg/mL (≈ 9.52 µM) | O=c1[nH]nnn1-c1ccccc1 | 9 mm | 11 mm | 14 mm | 0 mm | 12 mm | 10 mm | 0 mm |
| 0.58 µg/mL (≈ 2.79 µM) | 1.76 µg/mL (≈ 8.45 µM) | OCn1nnn(-c2ccccc2)c1=S | 19 mm | 42 mm | 30 mm | 23 mm | 32 mm | 31 mm | 26 mm |
| 1.37 µg/mL (≈ 4.44 µM) | 1.37 µg/mL (≈ 4.44 µM) | O=C(O)CCC(=O)OCn1nnn(-c2ccccc2)c1=S | 16 mm | 19 mm | 12 mm | 17 mm | 24 mm | 11 mm | 11 mm |
| 15.9 µg/mL (≈ 60 µM) | 5.29 µg/mL (≈ 20 µM) | CCOC(=O)CSc1nnnn1-c1ccccc1 | 0 mm | 13 mm | 13 mm | 0 mm | 9 mm | 0 mm | 14 mm |

Further lines, the compound ahead of its results:

| Compound | MIC [5] | MIC [8] | inhibition zone (IZ) [1] | inhibition zone (IZ) [2] | inhibition zone (IZ) [3] | inhibition zone (IZ) [4] | inhibition zone (IZ) [6] | inhibition zone (IZ) [7] | inhibition zone (IZ) [9] |
| --- | --- | --- | --- | --- | --- | --- | --- | --- | --- |
| O=c1n(Cc2ccccc2)nnn1-c1ccccc1 | – | – | 0 mm | 0 mm | 0 mm | 0 mm | 0 mm | 0 mm | 7 mm |
| CC(=O)OCCn1nnn(-c2ccccc2)c1=O | 37 µg/mL (≈ 149 µM) | 37 µg/mL (≈ 149 µM) | 0 mm | 0 mm | 9 mm | 0 mm | 0 mm | 12 mm | 15 mm |
| O=c1n(CO)nnn1-c1ccccc1 | 1.76 µg/mL (≈ 9.16 µM) | 0.19 µg/mL (≈ 0.989 µM) | 22 mm | 42 mm | 33 mm | 24 mm | 38 mm | 30 mm | 34 mm |
| c1ccc(CSc2nnnn2-c2ccccc2)cc1 | – | – | 0 mm | 0 mm | 0 mm | 0 mm | 0 mm | 0 mm | 0 mm |
| CC(=O)OCn1nnn(-c2ccccc2)c1=S | 13.9 µg/mL (≈ 55.5 µM) | 4.62 µg/mL (≈ 18.5 µM) | 0 mm | 0 mm | 12 mm | 0 mm | 10 mm | 0 mm | 15 mm |
| O=c1n(CCOCc2ccccc2)nnn1-c1ccccc1 | – | – | 0 mm | 0 mm | 0 mm | 0 mm | 0 mm | 0 mm | 20 mm |
| O=c1n(CCCCCCn2nnn(-c3ccccc3)c2=O)nnn1-c1ccccc1 | – | – | 0 mm | 0 mm | 0 mm | 0 mm | 0 mm | 0 mm | 0 mm |
| c1ccc(-n2nnnc2SCCCCCCSc2nnnn2-c2ccccc2)cc1 | – | – | 0 mm | 0 mm | 0 mm | 0 mm | 0 mm | 0 mm | 0 mm |
